Tests used:
B1R receptor of the rat = molecular target: T1, B1R receptor of the rat (Rattus norvegicus, UniProt P97583); experiment: Functional study on the bradykinin receptor 1 (B1R), FLIPR Ca2+ assay, rB1R cells; format: cell-based; details: agonist Des-Arg9-bradykinin 100 nM, % inhibition compared with the maximum achievable inhibition; for inhibition at 10 µM: CHO-K1, test substance 10 μM, read-out: B1R Antagonism, rat [10 μM] % Inhibition; for B1R Antagonism, rat [10 μM] % Inhibition: test substance 10 μM, rB1R CHO K1 cells
T1 construct: host or cells: CHO K1 cells (Chinese hamster ovary), stably transfected
T1 sequence (P97583 1-337): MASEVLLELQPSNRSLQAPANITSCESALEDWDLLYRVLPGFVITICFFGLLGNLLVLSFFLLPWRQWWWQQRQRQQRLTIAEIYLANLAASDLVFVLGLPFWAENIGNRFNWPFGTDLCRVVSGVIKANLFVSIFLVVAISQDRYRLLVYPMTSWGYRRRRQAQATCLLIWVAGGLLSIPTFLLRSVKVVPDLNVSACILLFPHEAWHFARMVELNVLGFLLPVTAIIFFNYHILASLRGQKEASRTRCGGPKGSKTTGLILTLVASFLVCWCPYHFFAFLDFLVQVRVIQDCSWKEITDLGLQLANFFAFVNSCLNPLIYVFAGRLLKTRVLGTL
How it was run: (§1)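 Readout: peak Fluo-4 Ca2+ fluorescence, FLIPR. Stable CHO K1 hB1R or rB1R cells; cpd 10 μM, 10 min preincubation, then agonist (hB1R: Lys-Des-Arg9-BK 0.5 nM; rB1R: Des-Arg9-BK 100 nM). Value = % inhibition relative to maximal achievable inhibition.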

human B1R receptor = molecular target: T2, human B1R receptor (Homo sapiens, UniProt P46663); experiment: Functional study on the bradykinin receptor 1 (B1R), FLIPR Ca2+ assay, hB1R cells; format: cell-based; details: agonist Lys-Des-Arg9-bradykinin 0.5 nM, % inhibition compared with the maximum achievable inhibition; for inhibition at 10 µM: CHO-K1, test substance 10 μM, read-out: B1R Antagonism, human [10 μM] % Inhibition; for B1R Antagonism, human [10 μM] % Inhibition: test substance 10 μM, hB1R CHO K1 cells
T2 construct: host or cells: CHO K1 cells (Chinese hamster ovary), stably transfected
T2 sequence (P46663 1-353): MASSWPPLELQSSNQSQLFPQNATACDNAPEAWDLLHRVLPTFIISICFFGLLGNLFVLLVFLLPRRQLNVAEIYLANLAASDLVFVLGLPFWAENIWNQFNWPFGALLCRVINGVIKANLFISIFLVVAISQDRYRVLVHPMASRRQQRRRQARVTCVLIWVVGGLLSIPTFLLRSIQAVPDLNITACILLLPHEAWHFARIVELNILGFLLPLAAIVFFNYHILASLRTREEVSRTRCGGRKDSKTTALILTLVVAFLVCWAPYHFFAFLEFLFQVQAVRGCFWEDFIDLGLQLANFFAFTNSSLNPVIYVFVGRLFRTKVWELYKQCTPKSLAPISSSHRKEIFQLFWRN
How it was run: as §1

inhibition at 10 µM (B1R receptor of the rat) [%]	inhibition at 10 µM (human B1R receptor) [%]	B1R Antagonism, rat [10 μM] % Inhibition (B1R receptor of the rat) [%]	B1R Antagonism, human [10 μM] % Inhibition (human B1R receptor) [%]	SMILES
98.8	104	–	–	COc1cc(C)c(S(=O)(=O)N2CCCCC2COCC(=O)N2CCN(CCc3ccccc3)CC2)c(C)c1 (centres unmarked) [Example 373, 2-((1-(4-methoxy-2,6-dimethylphenylsulfonyl)piperidin-2-yl)methoxy)-1-(4-phenethylpiperazin-1-yl)ethanone]
102	80.8	–	–	COc1cc(C)c(S(=O)(=O)N2CCCCC2COCC(=O)N2CCC[C@H]2CN2CCCC2)c(C)c1 (stereo partly drawn) [Example 374, 2-((1-(4-methoxy-2,6-dimethylphenylsulfonyl)piperidin-2-yl)methoxy)-1-((S)-2-(pyrrolidin-1-ylmethyl)pyrrolidin-1-yl)ethanone]
99.8	98.7	–	–	COc1cc(C)c(S(=O)(=O)N2CCCCC2COCC(=O)N2CCCN(C)CC2)c(C)c1 (centres unmarked) [Example 375, 2-((1-(4-methoxy-2,6-dimethylphenylsulfonyl)piperidin-2-yl)methoxy)-1-(4-methyl-1,4-diazepan-1-yl)ethanone]
99	67.1	–	–	COc1cc(C)c(S(=O)(=O)N2CCCCC2COCC(=O)N2CCN(c3ncc(C(F)(F)F)cc3Cl)CC2)c(C)c1 (centres unmarked) [Example 376, 1-(4-(3-chloro-5-(trifluoromethyl)pyridin-2-yl)piperazin-1-yl)-2-((1-(4-methoxy-2,6-dimethylphenylsulfonyl)piperidin-2-yl)methoxy)ethanone]
–	–	99.56	87.21	COc1cc(C)c(S(=O)(=O)N2CCCCC2COCC(=O)N(CCN(C)C)Cc2ccccc2)c(C)c1 (centres unmarked) [Example 377]
98.8	63.4	–	–	COc1cc(C)c(S(=O)(=O)N2CCCCC2COCC(=O)N2CCN(c3ccc(Cl)c(Cl)c3)CC2)c(C)c1 (centres unmarked) [Example 378, 1-(4-(3,4-dichlorophenyl)piperazin-1-yl)-2-((1-(4-methoxy-2,6-dimethylphenylsulfonyl)piperidin-2-yl)methoxy)ethanone]
102	67.9	–	–	COc1cc(C)c(S(=O)(=O)N2CCCCC2COCC(=O)N(C)CCN(C)C)c(C)c1 (centres unmarked) [Example 379, N-(2-(dimethylamino)ethyl)-2-((1-(4-methoxy-2,6-dimethylphenylsulfonyl)piperidin-2-yl)methoxy)-N-methylacetamide]
101	91.5	–	–	CCN(CC)CCN(CC)C(=O)COCC1CCCCN1S(=O)(=O)c1c(C)cc(OC)cc1C (centres unmarked) [Example 380, N-(2-(diethylamino)ethyl)-N-ethyl-2-((1-(4-methoxy-2,6-dimethylphenylsulfonyl)piperidin-2-yl)methoxy)acetamide]
100	77.9	–	–	COc1cc(C)c(S(=O)(=O)N2CCCCC2COCC(=O)N2CCN(Cc3ccc(Cl)c(Cl)c3)CC2)c(C)c1 (centres unmarked) [Example 381, 1-(4-(3,4-dichlorobenzyl)piperazin-1-yl)-2-((1-(4-methoxy-2,6-dimethylphenylsulfonyl)piperidin-2-yl)methoxy)ethanone]
101	103	–	–	COc1cc(C)c(S(=O)(=O)N2CCCCC2COCC(=O)N2CCN(Cc3ccc(Br)cc3)CC2)c(C)c1 (centres unmarked) [Example 382, 1-(4-(4-bromobenzyl)piperazin-1-yl)-2-((1-(4-methoxy-2,6-dimethylphenylsulfonyl)piperidin-2-yl)methoxy)ethanone]
102	40.2	–	–	COc1cc(C)c(S(=O)(=O)N2CCCCC2COCC(=O)N2CCN(Cc3c(C)cc(C)cc3C)CC2)c(C)c1 (centres unmarked) [Example 383, 2-((1-(4-methoxy-2,6-dimethylphenylsulfonyl)piperidin-2-yl)methoxy)-1-(4-(2,4,6-trimethylbenzyl)piperazin-1-yl)ethanone]
98.6	105	–	–	COc1cc(C)c(S(=O)(=O)N2CCCCC2COCC(=O)N2CCN(Cc3ccc(Cl)cc3)CC2)c(C)c1 (centres unmarked) [Example 384, 1-(4-(4-chlorobenzyl)piperazin-1-yl)-2-((1-(4-methoxy-2,6-dimethylphenylsulfonyl)piperidin-2-yl)methoxy)ethanone]
99.5	101	–	–	COc1cc(C)c(S(=O)(=O)N2CCCCC2COCC(=O)N2CCN(Cc3ccc(C)cc3)CC2)c(C)c1 (centres unmarked) [Example 385, 2-((1-(4-methoxy-2,6-dimethylphenylsulfonyl)piperidin-2-yl)methoxy)-1-(4-(4-methylbenzyl)piperazin-1-yl)ethanone]
97.9	101	–	–	COc1ccc(CN2CCN(C(=O)COCC3CCCCN3S(=O)(=O)c3c(C)cc(OC)cc3C)CC2)cc1 (centres unmarked) [Example 386, 2-((1-(4-methoxy-2,6-dimethylphenylsulfonyl)piperidin-2-yl)methoxy)-1-(4-(4-methoxybenzyl)piperazin-1-yl)ethanone]
101	91	–	–	COc1cc(C)c(S(=O)(=O)N2CCCCC2COCC(=O)N2CCN(Cc3ccccc3F)CC2)c(C)c1 (centres unmarked) [Example 387, 1-(4-(2-fluorobenzyl)piperazin-1-yl)-2-((1-(4-methoxy-2,6-dimethylphenylsulfonyl)piperidin-2-yl)methoxy)ethanone]
101	22.9	–	–	COc1cc(C)c(S(=O)(=O)N2CCCCC2COCC(=O)N2CCN(C)CC2c2ccccc2)c(C)c1 (centres unmarked) [Example 388, 2-((1-(4-methoxy-2,6-dimethylphenylsulfonyl)piperidin-2-yl)methoxy)-1-(4-methyl-2-phenylpiperazin-1-yl)ethanone]
–	–	100.49	100.51	O=C(COCC1CCCCN1S(=O)(=O)c1c(Cl)cc(Cl)cc1Cl)N1CCC(c2cccnc2)C1 (centres unmarked) [Example 389]
99.8	103	–	–	O=C(COCC1CCCCN1S(=O)(=O)c1c(Cl)cc(Cl)cc1Cl)N1CCC(c2ccncc2)C1 (centres unmarked) [Example 390, 1-(3-(pyridin-4-yl)pyrrolidin-1-yl)-2-((1-(2,4,6-trichlorophenylsulfonyl)piperidin-2-yl)methoxy)ethanone]
102	97.8	–	–	CN(CCc1ccncc1)C(=O)COCC1CCCCN1S(=O)(=O)c1c(Cl)cc(Cl)cc1Cl (centres unmarked) [Example 391, N-methyl-N-(2-(pyridin-4-yl)ethyl)-2-((1-(2,4,6-trichlorophenylsulfonyl)piperidin-2-yl)methoxy)acetamide]
99.1	101	–	–	CN(C(=O)COCC1CCCCN1S(=O)(=O)c1c(Cl)cc(Cl)cc1Cl)C(CN1CCCC1)c1ccccc1 (centres unmarked) [Example 392, N-methyl-N-(1-phenyl-2-(pyrrolidin-1-yl)ethyl)-2-((1-(2,4,6-trichlorophenylsulfonyl)piperidin-2-yl)methoxy)acetamide]
101	104	–	–	CN1CCN(C(=O)COCC2CCCCN2S(=O)(=O)c2c(Cl)cc(Cl)cc2Cl)CC1 (centres unmarked) [Example 393, 1-(4-methylpiperazin-1-yl)-2-((1-(2,4,6-trichlorophenylsulfonyl)piperidin-2-yl)methoxy)ethanone]
99.1	31.5	–	–	O=C(COCC1CCCCN1S(=O)(=O)c1c(Cl)cc(Cl)cc1Cl)NCc1ccncc1 (centres unmarked) [Example 394, N-(pyridin-4-ylmethyl)-2-((1-(2,4,6-trichlorophenylsulfonyl)piperidin-2-yl)methoxy)acetamide]
100	12.6	–	–	COc1cc(C)c(S(=O)(=O)N2CCCCC2COCC(=O)Nc2cccnc2N2CCOCC2)c(C)c1 (centres unmarked) [Example 395, 2-((1-(4-methoxy-2,6-dimethylphenylsulfonyl)piperidin-2-yl)methoxy)-N-(2-morpholinopyridin-3-yl)acetamide]
80.6	24.7	–	–	COc1cc(C)c(S(=O)(=O)N2CCCCC2COCC(=O)Nc2ccc(N3CCOCC3)nc2)c(C)c1 (centres unmarked) [Example 396, 2-((1-(4-methoxy-2,6-dimethylphenylsulfonyl)piperidin-2-yl)methoxy)-N-(6-morpholinopyridin-3-yl)acetamide]
101	97.2	–	–	COc1cc(C)c(S(=O)(=O)N2CCCCC2COCC(=O)N2CCC(c3nc4cc(C)ccc4[nH]3)CC2)c(C)c1 (centres unmarked) [Example 397, 2-((1-(4-methoxy-2,6-dimethylphenylsulfonyl)piperidin-2-yl)methoxy)-1-(4-(5-methyl-1H-benzo[d]imidazol-2-yl)piperidin-1-yl)ethanone]

Reference: US8435978B2, “Substituted sulfonamide compounds” (Gruenenthal GmbH, priority 2006, dated 2013)
